pIC50: −log10 of the molar value. Active and inactive are the calls of the source.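 How the source made its calls: active means over half block of KCNK9 potassium channel current at 10 µM; inactive means the rest.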
Target: Potassium channel subfamily K member 9 (Homo sapiens) (UniProt Q9NPC2)
Assay: KCNK9 (TASK3) current inhibition by patch clamp, SAR follow-up, selectivity assay for TASK1 (KCNK3) inhibitor project, cell-based, automated electrophysiology (AID 652210)
Details: HEK293 inducible KCNK9, QPatch automated patch clamp

Potassium channel subfamily K member 9 (Homo sapiens), sequence (Q9NPC2 whole entry, looked up): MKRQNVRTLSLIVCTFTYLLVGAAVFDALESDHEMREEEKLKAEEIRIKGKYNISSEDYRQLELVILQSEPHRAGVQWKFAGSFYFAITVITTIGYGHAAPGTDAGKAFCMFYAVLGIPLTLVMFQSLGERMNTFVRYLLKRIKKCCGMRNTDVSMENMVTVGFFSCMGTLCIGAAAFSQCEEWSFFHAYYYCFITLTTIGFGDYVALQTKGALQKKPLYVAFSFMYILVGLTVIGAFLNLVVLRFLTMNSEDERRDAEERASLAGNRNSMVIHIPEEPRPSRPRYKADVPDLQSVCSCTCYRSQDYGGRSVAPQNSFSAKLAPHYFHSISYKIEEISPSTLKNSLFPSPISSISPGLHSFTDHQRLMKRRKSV

IC50	pIC50	Structure (SMILES)
inactive		Cc1cccc(C(=O)Nc2cccc(NC(=O)c3ccncc3)c2)c1
	6.16	Cc1cccc(C(=O)Nc2cccc(NC(=O)c3ccccc3)c2)c1

Reference: PubChem BioAssay AID652210 (Johns Hopkins Ion Channel Center, 2013)
